Data as given in paper PMC8080589, “Modulation of αVβ6 integrin in osteoarthritis-related synovitis and the interaction with VTN(381–397 a.a.) competing for TGF-β1 activation” (Experimental & Molecular Medicine, 2021).

Key:
[1] = system: β6 integrin subunit expression, human fibroblast-like synoviocytes (FLSs); assay: β6 subunit expression in FLSs by western blot after stimulation; format: cell-based; conditions: TGF-β1 10 ng/mL, 3 or 7 days, n = 12, OA FLSs, western blot normalized to GAPDH, paired Wilcoxon, p-value ≤ 0.01
Procedure: Synovial membranes were obtained from 22 OA patients (14 females, 8 males; mean age 69.8 ± 9.6 years, BMI 30.9 ± 6.8) during knee replacement, and primary synovial fibroblasts were isolated as explained previously. The research ethics committee of CHU de Liege (Belgium) approved the study, and the patient gave informed consent to allow research procedures on samples. Human fibroblast-like synoviocytes (FLSs) were then cultured in DMEM supplemented with 10% FBS, 1% Pen/Strep, and 1% L-glutamine (all from Lonza; Basel, Switzerland) at 37 °C in an atmosphere of 5% CO2. In a plate, 5 × 10^4 FLSs were stimulated with different compounds to analyze the modulation of αVβ6: (i) TGF-β1, TNF-α, IL-1β, or IL-6 were used for 3 or 7 days at a concentration of 10 ng/mL; (ii) among the danger-associated molecular patterns, high-mobility group box 1 (HMGB1) was tested at 10, 50, and 100 ng/mL for 3 days, while S100A9 and S100A12 were tested at 100 and 200 ng/mL for 3 days or 24 h; (iii) advanced glycation end product (AGE-BSA) was tested at 50, 100, and 200 μg/mL for 3 days or 24 h; (iv) prednisolone and dexamethasone were used at 1 μM for 3 or 7 days; and (v) menadione or H2O2 was used to induce oxidative stress at 25–50–100 μM (3 h) and 100–200–400 μM (2 h), respectively, without FBS in the medium.
The expression of αV and β6 subunits and α-SMA in FLSs was evaluated by western blot analysis. Cells were scraped from plates and lysed with lysis buffer (25 mM HEPES, 150 mM NaCl, 0.5% Triton, 10% glycerol, 1 mM dithiothreitol) containing phosphatase inhibitors (25 mM β-glycerophosphate, 1 mM Na3VO4, and 1 mM NaF) and complete protease inhibitor mixture (Roche Applied Science; Penzberg, Germany). Total proteins were separated by 10% SDS–PAGE gels (12% for α-SMA) and transferred onto PVDF membranes. The membranes were then incubated with anti-αV polyclonal antibody (1:250 dilution) (Cell Signaling Technology; Boston, MA, USA), anti-β6 polyclonal antibody (1:1000 dilution) (Abcam; Cambridge, UK) or anti-α-SMA monoclonal antibody (Agilent; Santa Clara, CA, USA; 1:1000 dilution). HRP-conjugated anti-rabbit antibody (1:1000 dilution) (Cell Signaling Technology) was used as the secondary antibody. Immunoblots were developed using the ECL chemiluminescent detection system. Rabbit anti-glyceraldehyde 3-phosphate dehydrogenase (GAPDH) (Merck) or rabbit anti-heat shock protein 90 (Hsp90; Santa Cruz) was used as loading controls at a dilution of 1:10,000 or 1:200, respectively. Values of optical intensity were normalized to GAPDH or Hsp90 levels. Data were analyzed by paired Wilcoxon test; a p-value < 0.05 was considered statistically significant. Statistical analysis was performed with GraphPad Prism 6 software (San Diego, CA, USA).
IL-1β 10 ng/mL 3 days IL-6 10 ng/mL 3 daysIL-6 Prednisolone 1µM 3 daysPrednisolone
0.0 control IL-6 0.0 control PRE
Dexamethasone 1µM 3 daysDexamethasone TNF-α 10 ng/mL 3 days AGE 50 µg/mL 24 h

α-SMA in human FLSs = assay: Expression of α-SMA in FLSs by western blot; format: cell-based; conditions: TGF-β1 10 ng/mL, 7 days, OA FLSs (n = 5), western blot normalized to Hsp90
Procedure: Finally, for analysis of the expression of α-SMA, FLSs (n = 5) were stimulated with VTN(381–397 a.a.) (10, 25, 50, 100 ng/mL) with or without TGF-β1 (10 ng/mL) for 7 days.
The expression of αV and β6 subunits and α-SMA in FLSs was evaluated by western blot analysis. Cells were scraped from plates and lysed with lysis buffer (25 mM HEPES, 150 mM NaCl, 0.5% Triton, 10% glycerol, 1 mM dithiothreitol) containing phosphatase inhibitors (25 mM β-glycerophosphate, 1 mM Na3VO4, and 1 mM NaF) and complete protease inhibitor mixture (Roche Applied Science; Penzberg, Germany). Total proteins were separated by 10% SDS–PAGE gels (12% for α-SMA) and transferred onto PVDF membranes. The membranes were then incubated with anti-αV polyclonal antibody (1:250 dilution) (Cell Signaling Technology; Boston, MA, USA), anti-β6 polyclonal antibody (1:1000 dilution) (Abcam; Cambridge, UK) or anti-α-SMA monoclonal antibody (Agilent; Santa Clara, CA, USA; 1:1000 dilution). […] Data were analyzed by paired Wilcoxon test; a p-value < 0.05 was considered statistically significant. […]
FLSs were stimulated with VTN(381–397 a.a.) with or without TGF-β1 to evaluate the effect on the expression of the fibrotic marker α-SMA (Fig. 5). […] The results in Fig. 5 are expressed as the ratio of the normalized optical density vs. the control and are shown as the mean (±SEM).

[2] = system: latent TGF-β1 activation (αVβ6 on human FLSs; PAI-1 promoter-luciferase in TMLCs); assay: TGF-β luciferase bioassay, TMLC + FLS coculture, activation of latent TGF-β1; format: cell-based, human FLSs; mink lung epithelial reporter cells; conditions: peptide 50 ng/mL, 200 ng/mL latent TGF-β1, TMLC + FLS coculture, 16 h, n = 6 donors in triplicate, paired Wilcoxon
Procedure: Transformed mink lung epithelial cells (TMLCs), a generous gift from Prof. DB Rifkin (Department of Cell Biology, NYU School of Medicine, New York, NY), were used to test TGF-β1 functionality. TMLCs were cultured in DMEM supplemented with 10% FBS, 1% Pen/Strep, and 1 mg/mL G418 Sulfate (Biowest; Riverside, MO, USA). For coculture, TMLCs were plated in 96-well plates at a density of 10^4 cells per well, and fibroblasts were added at a density of 1.5 × 10^4 cells per well, with a final volume of 100 μL. Cells were allowed to attach at 37 °C and 5% CO2. After 6 h, the medium was removed and replaced by the different treatments diluted in medium with 0.1% BSA without FBS (final volume of 100 μL).
For function-blocking experiments, cells were incubated with anti-αVβ6 antibody (clone 10D5; Merck) or with the isotype control IgG2a kappa (clone eBM2a; Thermo Fisher Scientific) for 20 min at room temperature at a concentration of 50 μg/mL in medium containing 1 mM MgCl2/0.1% BSA before adding other compounds. […] Luciferase activity was assessed by plate-reading luminometers with an injector (Victor™ X3; PerkinElmer Waltham, MA, USA) adding 100 µl of luciferase assay reagent (Promega) per well. […]
The data are expressed as relative luciferase activity (RLA). RLA is the measured luciferase activity of the coculture divided by the activity of the related control alone under the same conditions. […]

effect on latent TGF-β1 activation (luciferase signal) [2] | Substance | effect on β6 subunit expression [1] | effect on α-SMA (α-SMA in human FLSs)
 | TGF-β1: profibrotic mediator | significantly increased β6 expression | upregulated the content of the fibrotic marker α-SMA
No significant variation was observed | hepcidin: used as a control peptide |  | 
